# Reference: ChEMBL document CHEMBL1201862, “PubChem BioAssay data set” (2004)
#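 Method: 48-hour compound exposure of cells in 96-well plates, five concentrations, linear interpolation of endpoints. GI50: concentration for 50% inhibition of growth.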 The source made the active and inactive calls. Rule as the data show it: active = GI50 up to about 1.1 µM and inactive = higher. Square brackets hold non-standard residues; d marks the D form. Peptide text beside a SMILES is read from it. * marks the point of attachment. ξ: configuration not given here. NMeN = CN[C@@H](CC(N)=O)C(=O)O; NMeV = CN[C@H](C(=O)O)C(C)C; ξNMeV = CNC(C(=O)O)C(C)C; Boc = CC(C)(C)OC(=O)*; ξNMeA = CNC(C)C(=O)O
# Columns and labels:
# Assay in all cases: NCI-60 cell line screen, 48 h
# T47D = system: T47D
# SNB-78 = system: SNB-78
# DLD-1 = system: DLD-1
# KM-20L2 = system: KM-20L2
# DMS-114 = system: DMS-114
# XF498 = system: XF498
# LXFL 529 = system: LXFL 529
# HOP-18 = system: HOP-18
# RXF 631 = system: RXF 631
smiles,measurement,setting,value
O=C1NN=C2C=C(c3ccc(Cl)cc3)CC(c3cccc(Cl)c3)C12 (stereo unspecified),GI50,T47D,60.7 µM (inactive)
O=c1c2cccnc2ncn1CCN1CCCC1,GI50,SNB-78,> 100 µM (inactive)
same,GI50,DLD-1,> 100 µM (inactive)
same,GI50,KM-20L2,> 100 µM (inactive)
same,GI50,DMS-114,> 100 µM (inactive)
same,GI50,XF498,> 100 µM (inactive)
same,GI50,LXFL 529,> 100 µM (inactive)
C=C1C(=O)OC2/C=C(/C)C3(O)OC(C)(CC(OC(=O)C(C)C)C12)CC3OC(C)=O (stereo unspecified),GI50,T47D,13 µM (inactive)
CC(C)=CCC[C@@H](C)C1=C(N)C(=O)C(C)=C(O)C1=O,GI50,T47D,42.9 µM (inactive)
O=[N+]([O-])c1cccc(-c2ncnc(-c3cccc([N+](=O)[O-])c3)n2)c1,GI50,T47D,81.8 µM (inactive)
Nc1ccc2nc3n(c2c1)C(c1c(F)cccc1F)SC3 (stereo unspecified),GI50,T47D,> 100 µM (inactive)
O/N=C1/COC(C(F)(F)F)(C(F)(F)F)C1,GI50,T47D,> 100 µM (inactive)
O=C1C=C(Nc2ccccc2C(=O)CC(=O)C(=O)Nc2ccc(Cl)c(Cl)c2)c2ccccc2C1=O,GI50,SNB-78,5.31 µM (inactive)
same,GI50,DLD-1,19.7 µM (inactive)
same,GI50,DMS-114,18.2 µM (inactive)
CC1(COS(=O)(=O)OCC2(C)COS(=O)(=O)OC2)COS(=O)(=O)OC1,GI50,T47D,> 20.9 µM (inactive)
COc1cc(NC(C)=O)ccc1C(=O)N/N=C/c1ccco1,GI50,T47D,> 100 µM (inactive)
CC1(C)[C@@H]2CC[C@]1(C)[C@H](OC(=O)CSC#N)C2,GI50,T47D,> 100 µM (inactive)
C1CCN(C2OC3C(COC3N3CCCCC3)OC2OC2CCO[C@@H]2N2CCCCC2)CC1 (stereo partly specified),GI50,SNB-78,8.26 µM (inactive)
same,GI50,DLD-1,38.8 µM (inactive)
same,GI50,KM-20L2,> 100 µM (inactive)
same,GI50,DMS-114,14.3 µM (inactive)
same,GI50,XF498,15.8 µM (inactive)
same,GI50,LXFL 529,17.3 µM (inactive)
COC(=O)C1=Cc2cc(OC)c(O)cc2[C@@H](c2ccc(O)c(OC)c2)[C@@H]1C(=O)OC,GI50,T47D,60.5 µM (inactive)
O=[N+]([O-])c1ccc(/C(=C\c2ccccc2)Cn2ccnc2)cc1,GI50,T47D,34.8 µM (inactive)
OCCCN(CCc1ccc(Cl)c(Cl)c1)CCN1CCCC1,GI50,T47D,33.1 µM (inactive)
O=C1c2ccccc2C(=O)c2c(NCCCN3CCOCC3)ccc(NCCCN3CCOCC3)c21,GI50,T47D,29.3 µM (inactive)
O=C1C2Cc3ccccc3CN2C(=O)N1CN1CCN(CN2C(=O)C3Cc4ccccc4CN3C2=O)CC1 (stereo unspecified),GI50,SNB-78,> 100 µM (inactive)
same,GI50,DLD-1,> 100 µM (inactive)
same,GI50,KM-20L2,> 100 µM (inactive)
same,GI50,DMS-114,> 100 µM (inactive)
same,GI50,HOP-18,> 100 µM (inactive)
same,GI50,RXF 631,> 100 µM (inactive)
COC(=O)[C@@H](NC1(c2ccccc2)c2ccccc2-c2ccccc21)[C@H](OC(=O)[C@H]1CCCN1S(=O)(=O)c1ccccc1)C(=O)OC,GI50,T47D,> 100 µM (inactive)
CCOC(=O)C(NC(=O)c1nc[nH]c1/N=N/N(C)C)C(C)C (stereo unspecified),GI50,DLD-1,> 100 µM (inactive)
same,GI50,DMS-114,> 100 µM (inactive)
same,GI50,LXFL 529,> 100 µM (inactive)
C[n+]1c(/C=C/c2ccc(O)c3ncccc23)[se]c2ccccc21,GI50,T47D,3.2 µM (inactive)
Nc1nc(-c2ccccc2)cc(-c2ccc(F)cc2)c1-c1ccc(Cl)cc1,GI50,T47D,> 100 µM (inactive)
Cn1c(=O)c2c(ncn2CCSS(=O)(=O)O)n(C)c1=O,GI50,T47D,> 100 µM (inactive)
O=C(O)CP(=S)(S)c1ccccc1 (stereo unspecified),GI50,SNB-78,> 100 µM (inactive)
same,GI50,DLD-1,> 100 µM (inactive)
same,GI50,KM-20L2,> 10 µM (inactive)
same,GI50,DMS-114,> 100 µM (inactive)
same,GI50,XF498,> 100 µM (inactive)
same,GI50,LXFL 529,> 100 µM (inactive)
Cn1cc(NC(=O)Nc2cc(C(=O)Nc3cc(C(=O)Nc4ccc5cc(S(=O)(=O)O)cc(S(=O)(=O)O)c5c4)n(C)c3)n(C)c2)cc1C(=O)Nc1cc(C(=O)Nc2ccc3cc(S(=O)(=O)O)cc(S(=O)(=O)O)c3c2)n(C)c1,GI50,T47D,> 100 µM (inactive)
CCC1=NC(CO)[C@H](c2ccccc2)O1 (stereo partly specified),GI50,SNB-78,> 100 µM (inactive)
same,GI50,DLD-1,> 100 µM (inactive)
same,GI50,KM-20L2,> 100 µM (inactive)
same,GI50,DMS-114,> 100 µM (inactive)
same,GI50,XF498,> 100 µM (inactive)
same,GI50,HOP-18,> 100 µM (inactive)
Oc1cc(-c2c[nH]c3ccccc23)nc2cc3c(cc12)OCO3,GI50,DLD-1,> 100 µM (inactive)
same,GI50,KM-20L2,> 100 µM (inactive)
same,GI50,DMS-114,> 100 µM (inactive)
same,GI50,XF498,41.6 µM (inactive)
same,GI50,RXF 631,> 100 µM (inactive)
same,GI50,LXFL 529,> 100 µM (inactive)
COC(=O)C(C)N(C)C(=O)[C@H](CC(N)=O)N(C)C(=O)[C@@H]1CCCN1C(=O)[C@H](C(C)C)N(C)C(=O)C(C(C)C)N(C)C(=O)[C@@H](NC(=O)OC(C)(C)C)C(C)C (stereo partly specified) (Boc-V[ξNMeV][NMeV]P[NMeN][ξNMeA]-OMe),GI50,SNB-78,> 100 µM (inactive)
same,GI50,DLD-1,37 µM (inactive)
same,GI50,KM-20L2,> 100 µM (inactive)
same,GI50,T47D,> 50 µM (inactive)
same,GI50,XF498,> 100 µM (inactive)
same,GI50,HOP-18,> 100 µM (inactive)
same,GI50,LXFL 529,> 100 µM (inactive)
COc1ccc2c([nH]c3c(O)c(-c4c(C)cc5c([nH]c6c(CC=C(C)C)c(OC)ccc65)c4O)c(C)cc32)c1CC=C(C)C [BISMURRAYAFOLINE B],GI50,SNB-78,> 100 µM (inactive)
same,GI50,DLD-1,> 100 µM (inactive)
same,GI50,KM-20L2,> 100 µM (inactive)
same,GI50,DMS-114,> 100 µM (inactive)
same,GI50,HOP-18,> 100 µM (inactive)
same,GI50,LXFL 529,> 100 µM (inactive)
COc1cc2c(c(O)c1OC)-c1c(cc(OC)c(OC)c1OC)CC(C)C(C)C2 (stereo unspecified) [GOMISIN K3],GI50,T47D,30.4 µM (inactive)
C=C(CC[C@@H](C(=O)O)[C@H]1[C@H](O)C[C@@]2(C)C3=CC[C@@H](C(=C)C)[C@](C)(CCC(=O)O)C3=CC[C@]12C)C(C)C [PORICOIC ACID A],GI50,T47D,23.8 µM (inactive)
CCCCCCCCCCCCCCN [TETRADECYLAMINE],GI50,T47D,> 100 µM (inactive)
